Results as given in patent publication US5118669A, “Peptides and intermediates therefor useful as antiallergic agents, vasodilators and immunoregulators” (Hitachi Chemical Co., Ltd., priority 1989, dated 1992).

Key:
[1] = tested on: intraperitoneal mast cells of the rats; assay: Inhibitory activity on histamine release from passively sensitized rat mast cells; type: cell-based; conditions: for inhibitory activity on histamine release: at a concentration of 10^-5 M or higher, FIG. 5-7; for potency of histamine release inhibition compared with H-Asp-Ser-Asp-Pro-Arg-OH: versus comparative drug H-Asp-Ser-Asp-Pro-Arg-OH; for potency of histamine release inhibition compared with cromoglycate: versus cromoglycate
Protocol: Male Wistar rats weighing 300-350 g were passively sensitized, and intraperitoneal mast cells of the rats were employed for the test. Rat antiserum used in the passive sensitization was prepared in accordance with the method of Mota [Immunology, 7, p. 681 (1964)] and the method of Hamaoka [J. Immunology, 113, p. 958 (1974)]. Male Wistar rats (weighing 200-250 g) each were injected ovalbumin (10 mg/kg) in a volume of 5 ml/kg intramuscularly on both thighs and simultaneously 2×10^10 cells of killed Bordetella pertussis were intraperitoneally administered to immunize the animal. Blood was drawn from the animal under ether anesthesia via the abdominal aorta on day 12 of the initial sensitization,from which antiserum was separated. The antiserum was lyophilized and stored at -20° C. Titer of the antiserum was assayed by the 48-hour rat PCA reaction. […] The anti-albumin IgE serum of the rat was two fold diluted, and 1 ml of the diluted serum was intraperitoneally administered to sensitize the animal. The rat was killed by blooding 48 hours after the sensitization, and 15 ml of a phosphate buffered saline (NaCl 8 g, KCl 0.2 g, Na2 HPO4.12H2 O 2.88 g, KH2 PO4 0.2 g, EDTA.2Na 0.2 g and bovine serum albumin 1 g, dissolved in purified water to make 1 liter, pH 7.4 (called PBS(-) hereinbelow) was intraperitoneally injected. The rat was then given light abdominal massage for about 2 min. and subjected to laparotomy to collect cells in the abdominal cavity. The cell suspension was centrifuged (1,000 rpm, 10 min.) and then resuspended in PBS(-). The PBS(-) suspension was overlayered on gum arabic density (specific gravity 1.075) followed by centrifugal separation (2,500 rpm, 10 min.). Deposited cells were washed with PBS(-) and suspended in fresh PBS(+)[a solution in which the EDTA 2Na in PBS(-) is replaced by 0.1 g of CaCl2, called PBS(+)] and adjusted to 1×10^5 cells/ml. The cell suspension was divided into silicone-treated test tubes in a volume of 0.8 ml/tube, which were then preincubated at 37° C. for 10 min. In the cell suspension-containing test tube was placed 0.1 ml of a test solution from various solutions diluted with PBS(+) followed by incubation at 37° C. for 15 min. To the test tube was then added 0.1 ml of a mixed solution of ovalbumin antigen (final concentration 1 mg/ml) and phosphatidyl-L-serine (final concentration 100 μm/ml) followed by incubation for additional 15 min. to release histamine. For cromoglycate, one of the comparative drugs, the drug was added 30 sec. prior to the addition of the antigen, and incubation was then made for additional 15 min. The reaction was terminated by addition of 1 ml of ice-cooled PBS(+), and the reaction mixture was centrifuged at 2,500 rpm for 10 min. To 2 ml of the supernatant was added 1 ml of a 4% solution of perchloric acid, and the mixture was assayed for free histamine. For the assay of total histamine, a sample was prepared by placing 0.8 ml of a suspension of untreated mast cells in boiling water for 10 min. followed by addition of 4% perchloric acid.
Amount of histamine in the sample was assayed by fluorimetry, and percent histamine release (%) was calculated by the equation [formula]

[2] = tested on: thoracic aorta of male rabbits contracted with potassium chloride; assay: Vasodilating action on aortic spiral strip contracted with potassium chloride; design: species or system rabbit; conditions: potassium chloride contraction
Protocol: (§1) The thoracic aorta of male rabbits weighing 2.5-3 kg was excised and aortic specimens of spiral strip 25-30 mm in length were prepared. […] The specimen was cumulatively administered with H-Asp-Gly-Lys-OH, H Ser-Asp-Gly-Lys-OH, or H-Asp-Ser-Asp-Gly-Lys-OH or H-Ala-Asp-Ser-Asp-Gly-Lys-OH, and relaxation reaction of the blood vessel was observed. As comparative drug were employed nitroprusside (sodium salt) and verapamil.

[3] = tested on: thoracic aorta of male rabbits contracted with norepinephrine; assay: Vasodilating action on aortic spiral strip contracted with norepinephrine; design: species or system rabbit; conditions: norepinephrine contraction
Protocol: as §1

[4] = tested on: lymphocytes (mononuclear cells from blood of a healthy adult); assay: Blast formation of lymphocytes stimulated with various lectins (3H-thymidine uptake); type: cell-based, human (healthy adult); conditions: for uptake of 3H-thymine by the lymphocytes stimulated with a lectin: particularly Con-A; for uptake of 3H-thymine by the lymphocytes stimulated with a lectin / influence upon uptake of 3H-thymine by lymphocytes in the absence of a mitogen: summary of Tables 3-6; for influence upon uptake of 3H-thymine by lymphocytes in the absence of a mitogen: no mitogen
Protocol: Mononuclear cells were collected by the density centrifugal method from blood of a healthy adult drawn in the presence of heparin and suspended in an RPMI-1640 culture medium (manufactured by Gibco) containing 10% by volume of bovine fetus serum (called FBS, manufactured by Dainihon Seiyaku). The suspension, adjusted to a concentration of 1×10^6 cells/ml, was divided into a 96-well Falcon microplate (manufactured by Becton Dickinson) in a volume of 100 μl/well. Then, a lectin, 1 μg/ml of PHA (phytohemagglutinin), 10 μg/ml of Con-A (concanavalin A) or 15 μg/ml of PWM (pokeweed mitogen) and one of the captioned peptides at a predetermined concentration were added followed by addition of a 10% FBS containing RPMI-1640 medium to a final liquid volume of 200 μl. Cultivation was made in a 5% by volume CO2 incubator at 37° C. for 72 hours, and 24 hours before completion of the cultivation 5 μCi of ^3 H-thymidine was added. The cells were recovered by a cell harvester (manufactured by Bio-Lab), and uptake of the ^3 H-thymidine was measured by a scintillation counter. Results of the measurement are shown in Table 3-Table 6 wherein figures indicate mean count (cpm)±standard error.

IL-1 = assay: Productivity of humoral factors by lymphocytes: IL-1; type: cell-based, human (healthy adult); conditions: for IL-1: cultivation for a week, control 7.1; for production of IL-1: summary of Table 7
Protocol: (§2) Mononuclear cells separated by the density centrifugal method from blood of a healthy adult drawn in the presence of heparin were suspended in an RPMI-1640 culture medium containing 10% by volume of FBS. The suspension was divided into culture tubes (Falcon 2054) each at a concentration of 1×10^6 cells/ml, to which the captioned peptides were respectively added. Cultivation was made in an incubator for a week. After completion of the cultivation, the culture was centrifuged (1,500 rpm, 10 min.), and the supernatant collected and assayed for humoral factors. Interleukin 1 (IL-1) and tumor-nectrotizing factors were measured, respectively by a IL-1 radioimmunoassay kit (manufactured by Amersham International) and a TNF radioimmunoassay kit (manufactured by Medgenix). Measurement of interleukin 6 (IL-6) was made by the enzyme immunoassay method (ELISA) using IL-6 antibody (manufactured by Genzyme). Results of the measurements are shown in Table 7 wherein figures represent mean value±standard error.

IL-6 = assay: Productivity of humoral factors by lymphocytes: IL-6; type: cell-based, human (healthy adult); conditions: for IL-6: cultivation for a week, control 270; for production of IL-6: summary of Table 7
Protocol: as §2

TNF = assay: Productivity of humoral factors by lymphocytes: TNF; type: cell-based, human (healthy adult); conditions: for TNF: cultivation for a week, control 2,020; for production of TNF: summary of Table 7
Protocol: as §2

[5] = Con-A (10 μg/ml), peptide 10^-6 M, control 37,800
[6] = Con-A (10 μg/ml), peptide 10^-8 M, control 37,800
[7] = PHA (1 μg/ml), peptide 10^-6 M, control 69,600
[8] = PHA (1 μg/ml), peptide 10^-8 M, control 69,600
[9] = PWM (15 μg/ml), peptide 10^-6 M, control 13,600
[10] = PWM (15 μg/ml), peptide 10^-8 M, control 13,600
[11] = mitogen None, peptide 10^-6 M, control 1,090
[12] = mitogen None, peptide 10^-8 M, control 1,090

Substance | inhibitory activity on histamine release [1] | potency of histamine release inhibition compared with H-Asp-Ser-Asp-Pro-Arg-OH [1] | potency of histamine release inhibition compared with cromoglycate [1] | Percent relaxation ([2]; compound 10^-4 M) [%] | Percent relaxation ([2]; compound 10^-5 M) [%] | Percent relaxation ([2]; compound 10^-6 M) [%] | Percent relaxation ([2]; compound 10^-7 M) [%] | Percent relaxation ([2]; compound 10^-8 M) [%] | Percent relaxation ([3]; compound 10^-4 M) [%] | Percent relaxation ([3]; compound 10^-5 M) [%] | Percent relaxation ([3]; compound 10^-6 M) [%] | Percent relaxation ([3]; compound 10^-7 M) [%] | Percent relaxation ([3]; compound 10^-8 M) [%] | Uptake of 3H-thymidine by lymphocytes [4, 5] | Uptake of 3H-thymidine by lymphocytes [4, 6] | Uptake of 3H-thymidine by lymphocytes [4, 7] | Uptake of 3H-thymidine by lymphocytes [4, 8] | Uptake of 3H-thymidine by lymphocytes [4, 9] | Uptake of 3H-thymidine by lymphocytes [4, 10] | uptake of 3H-thymine by the lymphocytes stimulated with a lectin [4] | further results
H-Asp-Gly-Lys-OH [DGK] | clear inhibitory activity | higher | nearly equal to or higher | 11.2 | 5.6 | 0 | 0 | 0 | 40.3 | 9.3 | 6.6 | 0 | 0 | 16,700 cpm | 20,000 cpm | 62,500 cpm | 62,700 cpm | 9,590 cpm | 11,500 cpm | strongly inhibit | Uptake of 3H-thymidine by lymphocytes [4, 11]: 925 cpm; Uptake of 3H-thymidine by lymphocytes [4, 12]: 1,120 cpm; influence upon uptake of 3H-thymine by lymphocytes in the absence of a mitogen [4]: little influence; IL-1 (IL-1; additive 10^-6 M): 9.5 fM/ml; IL-1 (IL-1; additive 10^-8 M): 7.1 fM/ml; production of IL-1 (IL-1): promote production; IL-6 (IL-6; additive 10^-6 M): 440 U/ml; IL-6 (IL-6; additive 10^-8 M): 400 U/ml; production of IL-6 (IL-6): promote production; TNF (TNF; additive 10^-6 M): 4,730 pg/ml; TNF (TNF; additive 10^-8 M): 4,110 pg/ml; production of TNF (TNF): promote production
H-Ser-Asp-Gly-Lys-OH (H-SDGK-OH) [tetrapeptide] | clear inhibitory activity | higher | nearly equal to or higher | 18.6 | 7.2 | 0 | 0 | 0 | 52.6 | 25.0 | 17.7 | 9.1 | 1.7 | 24,000 cpm | 24,200 cpm | 59,000 cpm | 62,100 cpm | 9,000 cpm | 10,000 cpm | strongly inhibit | Uptake of 3H-thymidine by lymphocytes [4, 11]: 911 cpm; Uptake of 3H-thymidine by lymphocytes [4, 12]: 1,436 cpm; influence upon uptake of 3H-thymine by lymphocytes in the absence of a mitogen [4]: little influence; IL-1 (IL-1; additive 10^-6 M): 11.2 fM/ml; IL-1 (IL-1; additive 10^-8 M): 10.7 fM/ml; production of IL-1 (IL-1): promote production; IL-6 (IL-6; additive 10^-6 M): 280 U/ml; IL-6 (IL-6; additive 10^-8 M): 350 U/ml; production of IL-6 (IL-6): promote production; TNF (TNF; additive 10^-6 M): 4,260 pg/ml; TNF (TNF; additive 10^-8 M): 3,620 pg/ml; production of TNF (TNF): promote production
